Paper PMC9411522, “Ginsenoside Rg5 allosterically interacts with P2RY12 and ameliorates deep venous thrombosis by counteracting neutrophil NETosis and inflammatory response” (Frontiers in Immunology, 2022)

Tests used:
[1] = target: T1, P2RY12 (Homo sapiens, UniProt Q9H244); experiment: SPR (Biacore T200, His-captured purified P2RY12, steady-state affinity); antagonism of 2MesADP signalling in CHO-P2RY12 cells; format: binding
[2] = target: T1, P2RY12; experiment: biochemical

T1 sequence (Q9H244 whole entry, one chain of several): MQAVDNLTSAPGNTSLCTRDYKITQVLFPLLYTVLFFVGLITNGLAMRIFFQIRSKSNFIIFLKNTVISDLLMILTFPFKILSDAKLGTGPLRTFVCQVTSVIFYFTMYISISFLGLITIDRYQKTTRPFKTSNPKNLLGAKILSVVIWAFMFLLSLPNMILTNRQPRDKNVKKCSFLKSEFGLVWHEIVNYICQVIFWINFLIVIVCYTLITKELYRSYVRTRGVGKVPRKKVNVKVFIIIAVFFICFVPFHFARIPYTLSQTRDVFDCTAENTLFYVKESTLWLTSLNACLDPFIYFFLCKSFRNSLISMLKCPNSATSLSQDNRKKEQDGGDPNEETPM

Row | Kd [2] [µM] | SMILES | Kd [1] [µM]
1 | – | CC(C)=CC/C=C(\C)[C@H]1CC[C@]2(C)[C@@H]1[C@H](O)C[C@@H]1[C@@]3(C)CC[C@H](O[C@@H]4O[C@H](CO)[C@@H](O)[C@H](O)[C@H]4O[C@@H]4O[C@H](CO)[C@@H](O)[C@H](O)[C@H]4O)C(C)(C)[C@@H]3CC[C@]12C [Rg5, Ginsenoside Rg5] | 0.33
2 | 0.102 | CCCSc1nc(N[C@@H]2C[C@H]2c2ccc(F)c(F)c2)c2nnn([C@@H]3C[C@H](OCCO)[C@@H](O)[C@H]3O)c2n1 [Ticagrelor] | –
